1 compound from US20250353820A1, “ANTIVIRAL PYRAZOLOPYRIDINONE COMPOUNDS” (Novartis AG, priority 2019, published 2025) can be followed below.

This experiment has as its system HCMV-Rluc virus (AD169 pp28-hRluc rUL131). Kind of experiment: CMV Luciferase Assay of Compounds 243-262 in ARPE-19 cells. In kind it is cell-based. To be noted: Human betaherpesvirus 5, AD169, ARPE-19, 72 h, read-out: CMV-Luc Cellular EC50 in ARPE-19. As for the experimental part: The assay uses a Luciferase-encoding HCMV. Luciferase is expressed under the control of a late viral gene (pp28) promoter in the AD169 strain, so that expression of the reporter is dependent on viral DNA replication. Compounds that affect any stage from viral entry to DNA replication result in a change in luciferase levels.
Compounds 243-262 were tested in a luminescence assay as follows.
ARPE-19 cells were maintained in growth medium (DMEM/F12 Glutamax+10 fetal bovine serum (FBS)+PenStrep) and, before reaching full confluence, were transferred to a centrifuge tube and spun for 5 minutes at 1000 rpm. The cells were resuspended in assay medium (DMEM/F12 Glutamax+2% FBS+PenStrep) and counted. Cell density was adjusted to one million cells per milliliter and infected with HCMV-Rluc virus (AD169 pp28-hRluc rUL131; MOI 0.6) in a 50 ml conical tube for 2 hours while shaking. After dilution of the infectious suspension ten-fold (to 100,000 cells per milliliter), 8000 cells are directly plated in 384-well plates pre-spotted with the compound to be tested. The cells were incubated for 72 hours at 37 degrees Celsius. Cells were then placed at room temperature and allowed to equilibrate for 20 minutes before addition of the Renilla-Glo (Promega) reagent. After a 10-minute incubation at room temperature, luminescence was measured on a microplate reader.

For `Cn1nc(C(=O)NCc2ccc(C#N)cc2)c2c1C(=O)N(CC1(S(=O)(=O)C(C)(C)C(O)CO)CC1)CC2` (stereo not shown) [Example 252, N-(4-cyanobenzyl)-6-((1-((3,4-dihydroxy-2-methylbutan-2-yl)sulfonyl)cyclopropyl)methyl)-1-methyl-7-oxo-4,5,6,7-tetrahydro-1H-pyrazolo[3,4-c]pyridine-3-carboxamide], the EC50 (usually the concentration giving half of the maximal effect) is 21.9 nM.
